“Also recorded” adds a separate entry of the source. Like-named read-outs stand apart in the source and are kept apart here.
Columns and labels:
[1] = tested on: Stratum corneum enzymatic extract; test: Bio-hydrolysis with the cutaneous enzymes obtained by tape stripping; conditions: for Bio-hydrolysis Rate (%): 35° C.
Description: (§1) Samples of Stratum corneum are taken with surgical sparadrap (type Blenderm 3M Health Care, St. Paul, Minn., USA). The buffers used in the bio-hydrolysis trials are: 50 mM Tris(tris[hydroxymethyl]aminomethane) pH 7.3 and pH 8; 50 mM Na-acetate pH 5.5; 50 mM MES (2-[N-morpholino]-ethanesulphonic) acid pH 6 and 50 mM phosphate pH 6.5.
(§2) The precursors are solubilised in acetonitrile at a concentration of 1 g/l. For the bio-hydrolysis trials 50 μl of substrate and 50 μl of acetonitrile in 900 μl of enzymatic extract in the buffer at a chosen pH are added. The reaction mixtures are incubated at 35° C. without stirring and shielded from the light. The evolution of the bio-hydrolysis is determined by HPLC (high-performance liquid chromatography) with reverse phase polarity. The controls are effected in the same solutions without enzymatic extracts of skin, in order to determine the chemical stability of the products.

[2] = Solubility of precursor in the bio-hydrolysis medium; type: physicochemical
Description: Resveratrol trilipoate is obtained via lipoic acid chloride prepared in situ under argon at ambient temperature in dichloromethane. The acylation reaction leads to a mixture of the products of coupling (phenolic and recorcinic monolipoates, dilipoates and trilipoates). The trilipoates were obtained after chromatography on silica. The product was not characterised for reasons of insolubility. For the same reasons it cannot be bio-hydrolysed (see Table 1).

[3] = tested on: Stratum corneum enzymatic extract
Description: as §1, §2

Row | Active substance(s) released by bio-hydrolyse: Polyphenol (PP) [3] | Bio-hydrolysis Rate (%) [3] | Compound | Active substance(s) released by bio-hydrolyse: A [1] | Active substance(s) released by bio-hydrolyse: B [1] | Active substance(s) released by bio-hydrolyse: Polyphenol (PP) [1] | further results
1 |  |  | CC(=O)Oc1cc(OC(=O)CCC(=O)Oc2c(C)c(C)c3c(c2C)CCC(C)(CCCC(C)CCCC(C)CCCC(C)C)O3)c2c(=O)cc(-c3ccc(OC(C)=O)c(OC(C)=O)c3)oc2c1 (stereo not drawn) [Lut(Ac)3-succinate-Vit E, 7-acetoxy-2-(3,4-diacetoxyphenyl)-4-oxo-4H-chromen-5-yl 2,5,7,8-tetramethyl-2-(4,8,12-trimethyltridecyl)-3,4-dihydro-2H-chromen-6-yl succinate] | Acetate +; also recorded: Succinate | Vitamin E | Luteolin | Bio-hydrolysis Rate (%) ([1]; bio-hydrolysis time 5 h): 70%
2 |  |  | CC(=O)Oc1cc(/C=C/c2ccc(OC(=O)CCCCC3CCSS3)cc2)cc(OC(C)=O)c1 (stereo not drawn) [Res(Ac)2-lipoate, (E)-4-(3,5-diacetoxystyryl)phenyl-5-(1,2-dithiolan-3-yl)pentanoate] | Acetate | Lipoate | lipoic acid; also recorded: Resveratrol + | Bio-hydrolysis Rate (%) ([1]; bio-hydrolysis time 48 h): 87%
3 |  |  | O=C(CCCCC1CCSS1)Oc1ccc(/C=C/c2cc(OC(=O)CCCCC3CCSS3)cc(OC(=O)CCCCC3CCSS3)c2)cc1 (stereo not drawn) [Res(lipoate)3, 3,5,4′-resveratrol trilipoate] |  |  |  | Solubility of precursor in the medium [2]: insolubility
4 |  |  | COc1cc(/C=C/C(=O)Oc2ccc(/C=C/c3cc(OC(C)=O)cc(OC(C)=O)c3)cc2)ccc1OC(C)=O [Res(Ac)2-ferulate(Ac), (E)-4-((E)-3,5-diacetoxystyryl)phenyl 3-(4-acetoxy-3-methoxyphenyl)acrylate] | Acetate | Ferulic acid | Resveratrol | Bio-hydrolysis Rate (%) ([1]; bio-hydrolysis time 6.5 h): 71%
5 | Resveratrol | 98% | CCCCCC(=O)Oc1ccc(/C=C/c2cc(OC(=O)CCCCC)cc(OC(=O)CCCCC)c2)cc1 [Res(caproate)3, 3,5,4′-resveratrol tricaproate, reference compound] |  |  |  | Active substance(s) released by bio-hydrolyse: A [3]: Caproate
6 | Resveratrol | 95% | CCCCCC(=O)Oc1ccc(/C=C/c2cc(OC(C)=O)cc(OC(C)=O)c2)cc1 [Res(Ac)2-caproate, 3,5-resveratrol diacetate-4′-caproate] |  |  |  | 
